Experimental data published in US5346913A, “N-iodopropargyl hydantoin compounds, compositions, preparation, and use as antimicrobial agents” (Rohm and Haas Company, priority 1992, dated 1994).
Values after ≈ are worked out from the molar mass of the structure shown. Read-outs that look alike come from different tables or passages of the source.

Legend:
Staphylococcus aureus = test: MIC, broth two-fold serial dilution test, Staphylococcus aureus (Saur); type: cell-based
Text: (§1) The compounds identified with a prime (') were the non-iodo analogues of the invention compounds, i.e., the compounds of formula III or IV. All data are reported in ppm of active ingredient required to control the respective organism. The indication "No In." means that the compound had no inhibitory activity at 500 ppm which was the maximum tested, and so if the "No In." compound were active, the minimum inhibitory concentration would be above 500 ppm. The comparative tests were not run side-by-side, but were run on different days using the same methods. […] A minimum inhibitory concentration (MIC) value is obtained using a broth, two-fold serial dilution test performed as follows: […] A volume of the stock solution is dispensed into culture media to give an initial starting test concentration of the compound of 500 ppm or 250 ppm. When the test is ready to be done, each vessel in the dilution series, except the first vessel, contains an equal volume of compound free broth. The first vessel contains twice the volume of broth with the starting concentration of test compound. One half of the broth from the first vessel is transferred to the second vessel. After being mixed, one half the resulting volume is removed from the second vessel and transferred to the third vessel. […] Each vessel is then inoculated with a cell suspension of the appropriate test organism. Bacteria are grown in broth and fungi on agar […] is grown in cooling tower media for a time and at a temperature appropriate to the species being tested. At the end of the growth period, the broth is vortexed to disperse the cells. In the case of fungi, the spores are harvested by pipetting water onto the slant and dislodging the spores with a sterile loop. The cell/spore suspension is standardized by controlling incubation time, temperature, and the volume of the diluent. The suspension is then used to inoculate the vessels containing the broth compound. The vessels are then incubated at the appropriate temperature. After the incubation, the vessels are examined for growth/no growth. The MIC is defined as the lowest concentration of compound that results in complete inhibition of growth of the test organism. BACTERIA: Pseudomonas fluorescens (Ps.fl), gram negative; Pseudomonas aerugenosa (Ps.ae), gram negative; Escherichia coli (E.c), gram negative; and Staphylococcus aureus (S.a), gram positive.

Aspergillus niger = test: MIC, broth two-fold serial dilution test, Aspergillus niger (Anig); type: cell-based; conditions: TSB
Text: as §1, with “INDUSTRIAL FUNGI: Aspergillus niger (A.n); Aureobasidium pullulans (A.p)” for “BACTERIA: Pseudomonas fluorescens (Ps.fl), gram negative; Pseudomonas aerugenosa (Ps.ae), gram negative; Escherichia coli (E.c), gram negative; and Staphylococcus aureus (S.a), gram positive.”

Escherichia coli = test: MIC, broth two-fold serial dilution test, Escherichia coli (Ecol); type: cell-based
Text: as §1

Pseudomonas aerugenosa = test: MIC, broth two-fold serial dilution test, Pseudomonas aerugenosa (Psae); type: cell-based
Text: as §1

Phytophthora infestans = test: whole plant or invertebrate; type: in vivo; conditions: for pest or weed control at 200 ppm / pest or weed control at 50 ppm: Phytophthora infestans, in Solanum lycopersicum, 96 h; for pest or weed control at 50 ppm: read-out: % Control TLB, secondary greenhouse test (Table 5), 50 ppm
Piricularia oryzae = test: whole plant or invertebrate; type: in vivo; conditions: Pyricularia oryzae, read-out: % Control RB
[1] = test system: Pellicularia filamentosa (f. sp. sasiki); test: whole plant or invertebrate; type: in vivo; conditions: 120 h; read-out: % Control RSB
[2] = test system: Pseudoperonospora cubensis; test: whole plant or invertebrate; type: in vivo; conditions: for pest or weed control at 200 ppm: Pseudoperonospora cubensis, in Cucumis sativus, 168 h, read-out: % Control CDM
[3] = test system: Puccinia recondita (f. sp. tritici Races PKB and PLD); test: whole plant or invertebrate; type: in vivo; conditions: for pest or weed control at 50 ppm / pest or weed control at 200 ppm: Puccinia recondita, 240 h, read-out: % Control WLR
[4] = test system: Erysiphe graminis (f. sp. tritici); test: whole plant or invertebrate; type: in vivo; conditions: for pest or weed control at 50 ppm / pest or weed control at 200 ppm: Blumeria graminis, read-out: % Control WPM
TLB, CDM, WLR, SNW, WPM = conditions: in vivo
Septoria nodorum = conditions: in vivo
[5] = read-out: % Control TLB, greenhouse test (Table 4), 200 ppm
[6] = read-out: % Control TLB, secondary greenhouse test (Table 5), 200 ppm

Structure (SMILES) | MIC (Staphylococcus aureus; M9G) | MIC (Staphylococcus aureus; TSB) | MIC (Aspergillus niger) | MIC (Escherichia coli; M9G) | MIC (Escherichia coli; TSB) | MIC (Pseudomonas aerugenosa; M9G) | MIC (Pseudomonas aerugenosa; TSB) | also measured
C#CCN1C(=O)N(c2cc(Cl)cc(Cl)c2)C(=O)C1C (centres unmarked) [Compound 1', 1-(2-propynyl)-3-(3,5-dichlorophenyl)-5-methylhydantoin, reference compound] | > 500 µg/mL | > 500 µg/mL | > 500 µg/mL | > 500 µg/mL | > 500 µg/mL | > 500 µg/mL | > 500 µg/mL | –
CC1C(=O)N(c2cc(Cl)cc(Cl)c2)C(=O)N1CC#CI (centres unmarked) [Compound 1] | > 500 µg/mL | > 500 µg/mL | 0.5 µg/mL (≈ 1.18 µM) | > 500 µg/mL | > 500 µg/mL | > 500 µg/mL | > 500 µg/mL | pest or weed control at 200 ppm (Phytophthora infestans; [5]): 0%; pest or weed control at 50 ppm (Phytophthora infestans): 75%; pest or weed control at 200 ppm (Phytophthora infestans; [6]): 95%; pest or weed control at 50 ppm (Piricularia oryzae): 50%; pest or weed control at 200 ppm (Piricularia oryzae): 50%; pest or weed control at 50 ppm [1]: 50%; pest or weed control at 200 ppm [1]: 75%; pest or weed control at 200 ppm [2]: 90%; pest or weed control at 50 ppm [3]: 50%; pest or weed control at 200 ppm [3]: 80%; pest or weed control at 50 ppm [4]: 0%
CC1(C)C(=O)N(c2cc(Cl)cc(Cl)c2)C(=O)N1CC#CI [Compound 6, 1-(3-iodo-2-propynyl)-3-(3,5-dichlorophenyl)-5,5-dimethylhydantoin] | 8 µg/mL (≈ 18.3 µM) | 2 µg/mL (≈ 4.58 µM) | 1 µg/mL (≈ 2.29 µM) | > 500 µg/mL | > 500 µg/mL | > 500 µg/mL | > 500 µg/mL | percent disease control TLB (Phytophthora infestans; advanced greenhouse test (Table 6), 0.25 kg a.i./ha): 70.0%; percent disease control Average (TLB, CDM, WLR, SNW, WPM): 77.6%; percent disease control CDM ([2]; in vivo): 100.0%; percent disease control WLR ([3]; in vivo): 82.0%; percent disease control SNW (Septoria nodorum): 68.0%; percent disease control WPM ([4]; in vivo): 68.0%
O=C1CN(CC#CI)C(=O)N1c1cc(Cl)cc(Cl)c1 [Compound 7, 1-(3-iodo-2-propynyl)-3-(3,5-dichlorophenyl)hydantoin] | 16 µg/mL (≈ 39.1 µM) | 8 µg/mL (≈ 19.6 µM) | 1 µg/mL (≈ 2.44 µM) | > 500 µg/mL | > 500 µg/mL | > 500 µg/mL | > 500 µg/mL | pest or weed control at 200 ppm (Phytophthora infestans; [5]): 90%; pest or weed control at 50 ppm (Phytophthora infestans): 50%; pest or weed control at 200 ppm (Phytophthora infestans; [6]): 90%; pest or weed control at 50 ppm (Piricularia oryzae): 50%; pest or weed control at 200 ppm (Piricularia oryzae): 50%; pest or weed control at 200 ppm [1]: 50%; pest or weed control at 200 ppm [2]: 50%; pest or weed control at 50 ppm [3]: 50%; pest or weed control at 50 ppm [4]: 0%
C#CCN1C(=O)N(Cc2ccccc2)C(=O)C1(C)C [Compound 8, 3-benzyl-1-propargyl-5,5-dimethylhydantoin, reference compound] | > 500 µg/mL | > 500 µg/mL | > 500 µg/mL | > 500 µg/mL | > 500 µg/mL | > 500 µg/mL | > 500 µg/mL | –
CC1(C)C(=O)N(Cc2ccccc2)C(=O)N1CC#CI [Compound 8] | 16 µg/mL (≈ 41.9 µM) | 16 µg/mL (≈ 41.9 µM) | < 0.25 µg/mL | 64 µg/mL (≈ 167 µM) | 125 µg/mL (≈ 327 µM) | 32 µg/mL (≈ 83.7 µM) | 125 µg/mL (≈ 327 µM) | pest or weed control at 50 ppm (Phytophthora infestans): 50%; pest or weed control at 200 ppm (Phytophthora infestans; [6]): 50%; pest or weed control at 50 ppm (Piricularia oryzae): 50%; pest or weed control at 200 ppm (Piricularia oryzae): 50%; pest or weed control at 50 ppm [1]: 50%; pest or weed control at 200 ppm [1]: 75%; pest or weed control at 50 ppm [3]: 80%; pest or weed control at 200 ppm [3]: 90%; pest or weed control at 50 ppm [4]: 0%; pest or weed control at 200 ppm [4]: 50%
CCCCN1C(=O)N(CC#CI)C(C)(C)C1=O [Compound 9, 1-(3-iodo-2-propynyl)-3-n-butyl-5,5-dimethylhydantoin] | 4 µg/mL (≈ 11.5 µM) | 16 µg/mL (≈ 46 µM) | 2 µg/mL (≈ 5.74 µM) | 16 µg/mL (≈ 46 µM) | 500 µg/mL (≈ 1440 µM) | 64 µg/mL (≈ 184 µM) | 500 µg/mL (≈ 1440 µM) | –
CCCCCCCCN1C(=O)N(CC#CI)C(C)(C)C1=O [Compound 10, 1-(3-iodo-2-propynyl)-3-n-octyl-5,5-dimethylhydantoin] | 2 µg/mL (≈ 4.95 µM) | 4 µg/mL (≈ 9.89 µM) | 4 µg/mL (≈ 9.89 µM) | 250 µg/mL (≈ 618 µM) | > 500 µg/mL | 125 µg/mL (≈ 309 µM) | > 500 µg/mL | –
C#CCN1C(=O)N(CC#C)C(C)(C)C1=O [Compound 11, 1,3-bis-(2-propynyl)-5,5-dimethylhydantoin, reference compound] | > 500 µg/mL | > 500 µg/mL | > 500 µg/mL | > 500 µg/mL | > 500 µg/mL | > 500 µg/mL | > 500 µg/mL | –
C#CCN1C(=O)NC(C)(C)C1=O [Compound 12, 3-(2-propynyl)-5,5-dimethylhydantoin, reference compound] | > 500 µg/mL | > 500 µg/mL | > 500 µg/mL | > 500 µg/mL | > 500 µg/mL | > 500 µg/mL | > 500 µg/mL | –
CC(C)(C#CI)N1CC(=O)N(c2cc(Cl)cc(Cl)c2)C1=O [Compound 13, 1-(1,1-dimethyl-3-iodo-2-propynyl)-3-(3,5-dichlorophenyl)hydantoin] | > 500 µg/mL | > 500 µg/mL | 8 µg/mL (≈ 18.3 µM) | > 500 µg/mL | > 500 µg/mL | > 500 µg/mL | > 500 µg/mL | pest or weed control at 200 ppm (Phytophthora infestans; [5]): 70%; pest or weed control at 50 ppm (Phytophthora infestans): 0%; pest or weed control at 200 ppm (Phytophthora infestans; [6]): 50%; pest or weed control at 50 ppm (Piricularia oryzae): 50%; pest or weed control at 200 ppm (Piricularia oryzae): 50%; pest or weed control at 50 ppm [1]: 50%; pest or weed control at 200 ppm [1]: 75%; pest or weed control at 200 ppm [2]: 80%; pest or weed control at 50 ppm [3]: 50%; pest or weed control at 200 ppm [3]: 90%; pest or weed control at 50 ppm [4]: 50%; pest or weed control at 200 ppm [4]: 75%
C#CCN1C(=O)N(Cc2ccccc2)C(C)(C)C1=O [Compound 14, 1-benzyl-3-(propyn-2-yl)-5,5-dimethylhydantoin, reference compound] | > 500 µg/mL | > 500 µg/mL | > 500 µg/mL | > 500 µg/mL | > 500 µg/mL | > 500 µg/mL | > 500 µg/mL | –
CC1(C)C(=O)N(CC#CI)C(=O)N1Cc1ccccc1 [Compound 14] | > 500 µg/mL | 64 µg/mL (≈ 167 µM) | 4 µg/mL (≈ 10.5 µM) | 125 µg/mL (≈ 327 µM) | 250 µg/mL (≈ 654 µM) | > 500 µg/mL | > 500 µg/mL | –
O=C1CNC(=O)N1CC#CI [Compound 15, 3-(3-iodo-2-propynyl)-hydantoin] | 64 µg/mL (≈ 242 µM) | 125 µg/mL (≈ 473 µM) | 8 µg/mL (≈ 30.3 µM) | 64 µg/mL (≈ 242 µM) | 64 µg/mL (≈ 242 µM) | 250 µg/mL (≈ 947 µM) | 500 µg/mL (≈ 1890 µM) | –
